The assay relates to P388 leukemia ip, CD2F1 mice, survival T/C. The experiment in a line: NCI In Vivo Anticancer Drug Screen. Data for tumor model P388 Leukemia (intraperitoneal) in CD2F1 (CDF1) mice. The following applies: endpoint: median survival time, higher = longer survival. A digest of the protocol: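 Mice carrying the transplanted tumor received test compound or vehicle. Survival was recorded in each group, and the value is the treated-group measurement divided by that of the vehicle-treated control group.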

The mark [1] stands for this setting: dose: 100.0 mg/kg/injection, schedule: Q01DX009 (ip), vehicle: saline with Tween-80.
The mark [2] stands for this setting: dose: 100.0 mg/kg/injection, schedule: Q04DX003 (ip), vehicle: saline with Tween-80.
[3] abbreviates: dose: 200.0 mg/kg/injection, schedule: Q01DX009 (ip), vehicle: saline with Tween-80.
Where [4] appears, read: dose: 200.0 mg/kg/injection, schedule: Q04DX003 (ip), vehicle: saline with Tween-80.
The mark [5] stands for this setting: dose: 400.0 mg/kg/injection, schedule: Q04DX003 (ip), vehicle: saline with Tween-80.
[6] abbreviates: dose: 60.0 mg/kg/injection, schedule: Q01DX005 (ip), vehicle: saline with Tween-80.
Setting [7] is: dose: 120.0 mg/kg/injection, schedule: Q01DX005 (ip), vehicle: saline with Tween-80.
[8] abbreviates: dose: 240.0 mg/kg/injection, schedule: Q01DX005 (ip), vehicle: saline with Tween-80.
The mark [9] stands for this setting: dose: 60.0 mg/kg/injection, schedule: Q01DX005 (ip), vehicle: Klucel (hydroxypropylcellulose) (HPC).
Setting [10] is: dose: 120.0 mg/kg/injection, schedule: Q01DX005 (ip), vehicle: Klucel (hydroxypropylcellulose) (HPC).
Setting [11] is: dose: 240.0 mg/kg/injection, schedule: Q01DX005 (ip), vehicle: Klucel (hydroxypropylcellulose) (HPC).
[12] abbreviates: dose: 50.0 mg/kg/injection, schedule: Q01DX005 (ip), vehicle: saline.
The mark [13] stands for this setting: dose: 100.0 mg/kg/injection, schedule: Q01DX005 (ip), vehicle: saline.

Where “and” joins values, the source holds several entries; their conditions need not be identical. Identical values can stand only once. Toxic doses and inconclusive results are not listed.

As to `CCOC1=NN(c2ccccc2)C(=O)C1`, the T/C reads like this: under setting [1], 100 % of control; under setting [2], 95 % of control; under setting [3], 100 % of control; under setting [4], 95 % of control; (dose: 400.0 mg/kg/injection, schedule: Q01DX009 (ip), vehicle: saline with Tween-80) 100 % of control; under setting [5], 95 % of control.
`NNC(=O)CC(NN)c1ccccc1O` (configuration not stated): the T/C was 104 % of control under setting [6], 105 % of control under setting [7] and 105 % of control under setting [8].
`O=C1c2c(Cl)ccc([N+](=O)[O-])c2C(=O)c2c(Cl)ccc([N+](=O)[O-])c21`: the T/C (dose: 12.5 mg/kg/injection, schedule: Q01DX005 (ip), vehicle: Klucel (hydroxypropylcellulose) (HPC)) was 106 % of control; the T/C (dose: 25.0 mg/kg/injection, schedule: Q01DX005 (ip), vehicle: Klucel (hydroxypropylcellulose) (HPC)) was 104 % of control; the T/C (dose: 50.0 mg/kg/injection, schedule: Q01DX005 (ip), vehicle: Klucel (hydroxypropylcellulose) (HPC)) was 99 % of control and 104 % of control; the T/C (dose: 100.0 mg/kg/injection, schedule: Q01DX005 (ip), vehicle: Klucel (hydroxypropylcellulose) (HPC)) is 94 % of control; the T/C (dose: 200.0 mg/kg/injection, schedule: Q01DX005 (ip), vehicle: Klucel (hydroxypropylcellulose) (HPC)) is 94 % of control.
For the compound `O=C1CS/C(=N/C(=O)Nc2ccc(Cl)cc2)N1`, the T/C by setting is: (dose: 25.0 mg/kg/injection, schedule: Q04DX002 (ip), vehicle: Klucel (hydroxypropylcellulose) (HPC)) 90 % of control; (dose: 50.0 mg/kg/injection, schedule: Q04DX002 (ip), vehicle: Klucel (hydroxypropylcellulose) (HPC)) 88 % of control; (dose: 100.0 mg/kg/injection, schedule: Q04DX002 (ip), vehicle: Klucel (hydroxypropylcellulose) (HPC)) 91 % of control; (dose: 200.0 mg/kg/injection, schedule: Q04DX002 (ip), vehicle: Klucel (hydroxypropylcellulose) (HPC)) 95 % of control; (dose: 400.0 mg/kg/injection, schedule: Q04DX002 (ip), vehicle: Klucel (hydroxypropylcellulose) (HPC)) 87 % of control.
Consider `O=C1OCC/C1=C\NCCCCCCCCN/C=C1\CCOC1=O`, for which the T/C reads like this: under setting [9], 97 % of control; under setting [10], 102 % of control; under setting [11], 105 % of control.
For `CCOC(=O)c1cnc2cc3c(cc2c1Nc1cccc(Cl)c1)OCO3`, in that order: 105 % of control, 95 % of control and 108 % of control.
As for `O=[N+]([O-])c1ccc(C=Nc2ccc3c4c(cccc24)-c2ccccc2-3)cc1`, the T/C is 101 % of control (dose: 50.0 mg/kg/injection, schedule: Q01DX009 (ip), vehicle: saline with Tween-80); 90 % of control under setting [1]; 108 % of control under setting [3].
Turning to `CCC(/C=N/N=C(N)N)=N\N=C(N)N`, the T/C was 110 % of control under setting [12] and 100 % of control under setting [13].
As to `CC(=O)N1C=CC(C2C=CN(C(C)=O)C=C2)C=C1`, the T/C is, setting by setting: (dose: 10.0 mg/kg/injection, schedule: Q01DX009 (ip), vehicle: saline with Tween-80) 109 % of control; (dose: 20.0 mg/kg/injection, schedule: Q01DX009 (ip), vehicle: saline with Tween-80) 96 % of control; (dose: 40.0 mg/kg/injection, schedule: Q01DX009 (ip), vehicle: saline with Tween-80) 100 % of control.
With `COc1cc(C=NCc2ccccc2)cc(OC)c1O`, the T/C is 103 % of control (dose: 50.0 mg/kg/injection, schedule: Q04DX003 (ip), vehicle: saline with Tween-80); 97 % of control under setting [4]; 97 % of control under setting [5].
For the compound `CCN(CC)CCCNc1nccc2ccc(OC)cc12`, the T/C under setting [12] is 99 % of control; the T/C under setting [13] was 99 % of control; the T/C (dose: 200.0 mg/kg/injection, schedule: Q01DX005 (ip), vehicle: saline) is 97 % of control.
As for `CNCCCCCc1cc(-c2ccc([N+](=O)[O-])cc2)on1`, the T/C runs as follows: under setting [2], 95 % of control; under setting [4], 100 % of control.
Regarding `CNC(=O)Nc1nc2ccccc2[nH]1`, the T/C is, setting by setting: (dose: 20.0 mg/kg/injection, schedule: Q04DX003 (ip), vehicle: other) 100 % of control; (dose: 20.0 mg/kg/injection, schedule: Q04DX003 (oral), vehicle: other) 100 % of control; (dose: 40.0 mg/kg/injection, schedule: Q04DX003 (ip), vehicle: other) 95 % of control; (dose: 40.0 mg/kg/injection, schedule: Q04DX003 (oral), vehicle: other) 100 % of control; (dose: 50.0 mg/kg/injection, schedule: Q04DX003 (ip), vehicle: Klucel (hydroxypropylcellulose) (HPC)) 100 % of control (2×) and 109 % of control; (dose: 80.0 mg/kg/injection, schedule: Q04DX003 (ip), vehicle: other) 102 % of control. The T/C reads like this: (dose: 80.0 mg/kg/injection, schedule: Q04DX003 (oral), vehicle: other) 100 % of control; (dose: 100.0 mg/kg/injection, schedule: Q04DX003 (ip), vehicle: Klucel (hydroxypropylcellulose) (HPC)) 105 % of control and 111 % of control and 116 % of control; (dose: 160.0 mg/kg/injection, schedule: Q04DX003 (ip), vehicle: other) 111 % of control; (dose: 160.0 mg/kg/injection, schedule: Q04DX003 (oral), vehicle: other) 104 % of control; (dose: 200.0 mg/kg/injection, schedule: Q04DX003 (ip), vehicle: Klucel (hydroxypropylcellulose) (HPC)) 112 % of control and 118 % of control; (dose: 320.0 mg/kg/injection, schedule: Q04DX003 (ip), vehicle: other) 119 % of control. For the same compound, the T/C (dose: 320.0 mg/kg/injection, schedule: Q04DX003 (oral), vehicle: other) was 102 % of control; the T/C (dose: 400.0 mg/kg/injection, schedule: Q04DX003 (ip), vehicle: Klucel (hydroxypropylcellulose) (HPC)) is 109 % of control and 121 % of control; the T/C (dose: 640.0 mg/kg/injection, schedule: Q04DX003 (ip), vehicle: other) is 154 % of control; the T/C (dose: 640.0 mg/kg/injection, schedule: Q04DX003 (oral), vehicle: other) was 109 % of control.
Regarding `CCN(CC)CCN1c2ccccc2Sc2c1ccc1ccccc21`, the T/C reads like this: (dose: 50.0 mg/kg/injection, schedule: Q01DX005 (ip), vehicle: saline + Tween-80 + alcohol) 112 % of control; (dose: 100.0 mg/kg/injection, schedule: Q01DX005 (ip), vehicle: saline + Tween-80 + alcohol) 107 % of control; (dose: 200.0 mg/kg/injection, schedule: Q01DX005 (ip), vehicle: saline + Tween-80 + alcohol) 107 % of control.
As for `C(=N\N1CCCCCC1)/c1c2ccccc2cc2ccccc12`, the T/C is 89 % of control (dose: 50.0 mg/kg/injection, schedule: Q01DX005 (ip), vehicle: Klucel + Tween-80); 90 % of control (dose: 100.0 mg/kg/injection, schedule: Q01DX005 (ip), vehicle: Klucel + Tween-80); 92 % of control (dose: 200.0 mg/kg/injection, schedule: Q01DX005 (ip), vehicle: Klucel + Tween-80).
Take `C1=C2COCOC3CCN(C1)C23` (configuration not stated): the T/C runs as follows: (dose: 34.32 mg/kg/injection, schedule: Q01DX005 (ip), vehicle: saline) 101 % of control; (dose: 68.64 mg/kg/injection, schedule: Q01DX005 (ip), vehicle: saline) 107 % of control; (dose: 137.28 mg/kg/injection, schedule: Q01DX005 (ip), vehicle: saline) 108 % of control.
For the compound `C[C@]12CC[C@H]([C@@]3(C)CC[C@H]4CC[C@]43O)[C@@H](CO)[C@@H]1CC[C@@H]2O`, the T/C is 104 % of control under setting [6], 98 % of control under setting [7] and 91 % of control under setting [8].
`CCC1c2ccccc2[C@H]2C(c3ccccc3)=NN(c3ccccc3)[C@H]2N1CC` (some centres not stated): the T/C reads like this: (dose: 50.0 mg/kg/injection, schedule: Q01DX005 (ip), vehicle: saline with Tween-80) 100 % of control; (dose: 100.0 mg/kg/injection, schedule: Q01DX005 (ip), vehicle: saline with Tween-80) 92 % of control; (dose: 200.0 mg/kg/injection, schedule: Q01DX005 (ip), vehicle: saline with Tween-80) 90 % of control.

Values taken from PubChem BioAssay AID330 (DTP/NCI, 2004).
